Biological target: T1, Receptor-type tyrosine-protein kinase FLT3 (Homo sapiens, UniProt P36888)
T1 sequence (P36888 whole entry): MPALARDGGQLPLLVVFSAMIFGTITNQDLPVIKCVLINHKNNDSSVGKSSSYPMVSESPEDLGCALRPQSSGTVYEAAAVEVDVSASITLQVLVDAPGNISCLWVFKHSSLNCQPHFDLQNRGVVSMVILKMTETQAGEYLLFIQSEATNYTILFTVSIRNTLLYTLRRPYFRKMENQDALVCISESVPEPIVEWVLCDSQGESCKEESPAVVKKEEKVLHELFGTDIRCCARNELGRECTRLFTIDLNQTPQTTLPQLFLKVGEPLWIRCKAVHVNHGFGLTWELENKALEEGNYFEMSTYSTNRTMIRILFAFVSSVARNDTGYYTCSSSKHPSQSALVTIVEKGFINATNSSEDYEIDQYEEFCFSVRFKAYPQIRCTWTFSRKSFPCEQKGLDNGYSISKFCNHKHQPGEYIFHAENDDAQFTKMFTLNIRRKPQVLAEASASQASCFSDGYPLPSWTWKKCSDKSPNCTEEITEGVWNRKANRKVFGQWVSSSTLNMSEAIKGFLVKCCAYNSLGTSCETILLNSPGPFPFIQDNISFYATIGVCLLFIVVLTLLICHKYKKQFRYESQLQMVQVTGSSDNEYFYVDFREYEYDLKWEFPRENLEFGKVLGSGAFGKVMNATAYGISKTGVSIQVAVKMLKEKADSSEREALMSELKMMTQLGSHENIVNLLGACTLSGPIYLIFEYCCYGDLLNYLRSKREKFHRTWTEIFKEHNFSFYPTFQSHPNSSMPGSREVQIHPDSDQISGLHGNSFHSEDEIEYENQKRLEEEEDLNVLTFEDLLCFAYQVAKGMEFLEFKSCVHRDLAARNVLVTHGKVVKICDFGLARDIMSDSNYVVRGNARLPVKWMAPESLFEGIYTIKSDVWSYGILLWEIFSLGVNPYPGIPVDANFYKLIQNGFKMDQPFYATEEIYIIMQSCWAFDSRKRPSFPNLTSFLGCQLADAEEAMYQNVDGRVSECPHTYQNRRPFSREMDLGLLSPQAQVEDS
Assay: Sci. USA 1988, 85(23), 9312). Specific steps were as follows: The compound of the present invention was dissolved in dimethyl sulfoxide (DMSO) to make a stock solution of 2 mM, then the stock solution was diluted with DMSO following a 7 half-log series to concentrations ranging from 2 uM to 600 pM.
Format: cell-based

IC50: 31 nM
Structure (SMILES): COc1cc2c(Oc3ccc(NC(=O)C4(C(=O)Nc5ccc(F)cc5)CC4)cc3F)ccnc2cc1OCCCC(=O)NO

Reference: ChEMBL document CHEMBL3886358, “Quinolyl-containing hydroxamic acid compound and preparation method thereof, and pharmaceutical composition containing this compound and use thereof” (2015)
